Patent US8192962B2, “Processes for detecting toxic substances” (Daikin Industries, Ltd., priority 2001, dated 2012)

Test system: Stress protein genes
Experiment: DNA chip mRNA expression in yeast, stress protein genes (Table 6)
Assay type: cell-based, Saccharomyces cerevisiae S288C
In short: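 S. cerevisiae S288C grown at 25° C in YPD were exposed in log phase for two hours to one toxic chemical at a growth-inhibiting, non-lethal concentration; untreated cells served as control. Poly(A) mRNA was reverse-transcribed with Cy3/Cy5-dUTP and hybridized to a whole-genome yeast DNA chip at 65° C for over 12 hours; values are fluorescence ratios versus untreated.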

O=[N+]([O-])c1cc[n+]([O-])c2ccccc12 [(5), 4-nitroquinolin-N-oxide]
The level of expressed mRNA in the presence of chemical substance/The level of expressed mRNA in the absence of chemical substance (yeast gene YAL005C): 1.2
The level of expressed mRNA in the presence of chemical substance/The level of expressed mRNA in the absence of chemical substance (yeast gene YAL015C): 1.1
The level of expressed mRNA in the presence of chemical substance/The level of expressed mRNA in the absence of chemical substance (yeast gene YBL075C): 1.1
The level of expressed mRNA in the presence of chemical substance/The level of expressed mRNA in the absence of chemical substance (yeast gene YBL093C): 1.0
The level of expressed mRNA in the presence of chemical substance/The level of expressed mRNA in the absence of chemical substance (yeast gene YBR044C): 1.4
The level of expressed mRNA in the presence of chemical substance/The level of expressed mRNA in the absence of chemical substance (yeast gene YBR054W): 0.8
The level of expressed mRNA in the presence of chemical substance/The level of expressed mRNA in the absence of chemical substance (yeast gene YBR067C): 1.1
The level of expressed mRNA in the presence of chemical substance/The level of expressed mRNA in the absence of chemical substance (yeast gene YBR072W): 1.2
The level of expressed mRNA in the presence of chemical substance/The level of expressed mRNA in the absence of chemical substance (yeast gene YBR126C): 0.7
The level of expressed mRNA in the presence of chemical substance/The level of expressed mRNA in the absence of chemical substance (yeast gene YBR169C): 0.8
The level of expressed mRNA in the presence of chemical substance/The level of expressed mRNA in the absence of chemical substance (yeast gene YCL035C): 1.5
The level of expressed mRNA in the presence of chemical substance/The level of expressed mRNA in the absence of chemical substance (yeast gene YCR021C): 0.9
The level of expressed mRNA in the presence of chemical substance/The level of expressed mRNA in the absence of chemical substance (yeast gene YCR060W): 0.8
The level of expressed mRNA in the presence of chemical substance/The level of expressed mRNA in the absence of chemical substance (yeast gene YCR083W): 1.6
The level of expressed mRNA in the presence of chemical substance/The level of expressed mRNA in the absence of chemical substance (yeast gene YDL022W): 0.7
The level of expressed mRNA in the presence of chemical substance/The level of expressed mRNA in the absence of chemical substance (yeast gene YDL025C): 0.6
The level of expressed mRNA in the presence of chemical substance/The level of expressed mRNA in the absence of chemical substance (yeast gene YDR033W): 1.1
The level of expressed mRNA in the presence of chemical substance/The level of expressed mRNA in the absence of chemical substance (yeast gene YDR077W): 0.8
The level of expressed mRNA in the presence of chemical substance/The level of expressed mRNA in the absence of chemical substance (yeast gene YDR098C): 1.5
The level of expressed mRNA in the presence of chemical substance/The level of expressed mRNA in the absence of chemical substance (yeast gene YDR155C): 0.8
The level of expressed mRNA in the presence of chemical substance/The level of expressed mRNA in the absence of chemical substance (yeast gene YDR258C): 1.3
The level of expressed mRNA in the presence of chemical substance/The level of expressed mRNA in the absence of chemical substance (yeast gene YDR293C): 0.6
The level of expressed mRNA in the presence of chemical substance/The level of expressed mRNA in the absence of chemical substance (yeast gene YDR436W): 0.7
The level of expressed mRNA in the presence of chemical substance/The level of expressed mRNA in the absence of chemical substance (yeast gene YDR513W): 0.9
The level of expressed mRNA in the presence of chemical substance/The level of expressed mRNA in the absence of chemical substance (yeast gene YDR519W): 0.7
The level of expressed mRNA in the presence of chemical substance/The level of expressed mRNA in the absence of chemical substance (yeast gene YEL030W): 0.4
The level of expressed mRNA in the presence of chemical substance/The level of expressed mRNA in the absence of chemical substance (yeast gene YEL039C): 0.9
The level of expressed mRNA in the presence of chemical substance/The level of expressed mRNA in the absence of chemical substance (yeast gene YER042W): 1.1
The level of expressed mRNA in the presence of chemical substance/The level of expressed mRNA in the absence of chemical substance (yeast gene YER057C): 0.8
The level of expressed mRNA in the presence of chemical substance/The level of expressed mRNA in the absence of chemical substance (yeast gene YER103W): 1.1
The level of expressed mRNA in the presence of chemical substance/The level of expressed mRNA in the absence of chemical substance (yeast gene YER125W): 1.4
The level of expressed mRNA in the presence of chemical substance/The level of expressed mRNA in the absence of chemical substance (yeast gene YFL014W): 1.0
The level of expressed mRNA in the presence of chemical substance/The level of expressed mRNA in the absence of chemical substance (yeast gene YFL016C): 1.3
The level of expressed mRNA in the presence of chemical substance/The level of expressed mRNA in the absence of chemical substance (yeast gene YFL020C): 1.1
The level of expressed mRNA in the presence of chemical substance/The level of expressed mRNA in the absence of chemical substance (yeast gene YFR052W): 1.4
The level of expressed mRNA in the presence of chemical substance/The level of expressed mRNA in the absence of chemical substance (yeast gene YGL073W): 1.7
The level of expressed mRNA in the presence of chemical substance/The level of expressed mRNA in the absence of chemical substance (yeast gene YGL115W): 1.2
The level of expressed mRNA in the presence of chemical substance/The level of expressed mRNA in the absence of chemical substance (yeast gene YGL181W): 1.1
The level of expressed mRNA in the presence of chemical substance/The level of expressed mRNA in the absence of chemical substance (yeast gene YGR088W): 1.0
The level of expressed mRNA in the presence of chemical substance/The level of expressed mRNA in the absence of chemical substance (yeast gene YHL028W): 1.1
The level of expressed mRNA in the presence of chemical substance/The level of expressed mRNA in the absence of chemical substance (yeast gene YHL046C): 0.9
The level of expressed mRNA in the presence of chemical substance/The level of expressed mRNA in the absence of chemical substance (yeast gene YHR030C): 1.8
The level of expressed mRNA in the presence of chemical substance/The level of expressed mRNA in the absence of chemical substance (yeast gene YHR057C): 1.3
The level of expressed mRNA in the presence of chemical substance/The level of expressed mRNA in the absence of chemical substance (yeast gene YHR104W): 1.1
The level of expressed mRNA in the presence of chemical substance/The level of expressed mRNA in the absence of chemical substance (yeast gene YIL011W): 1.1
The level of expressed mRNA in the presence of chemical substance/The level of expressed mRNA in the absence of chemical substance (yeast gene YIL033C): 0.7
The level of expressed mRNA in the presence of chemical substance/The level of expressed mRNA in the absence of chemical substance (yeast gene YIR037W): 0.6
The level of expressed mRNA in the presence of chemical substance/The level of expressed mRNA in the absence of chemical substance (yeast gene YIR038C): 0.7
The level of expressed mRNA in the presence of chemical substance/The level of expressed mRNA in the absence of chemical substance (yeast gene YJL128C): 1.2
The level of expressed mRNA in the presence of chemical substance/The level of expressed mRNA in the absence of chemical substance (yeast gene YJL158C): 1.4
The level of expressed mRNA in the presence of chemical substance/The level of expressed mRNA in the absence of chemical substance (yeast gene YJL159W): 1.0
The level of expressed mRNA in the presence of chemical substance/The level of expressed mRNA in the absence of chemical substance (yeast gene YJL165C): 1.1
The level of expressed mRNA in the presence of chemical substance/The level of expressed mRNA in the absence of chemical substance (yeast gene YJR045C): 0.5
The level of expressed mRNA in the presence of chemical substance/The level of expressed mRNA in the absence of chemical substance (yeast gene YJR090C): 1.2
The level of expressed mRNA in the presence of chemical substance/The level of expressed mRNA in the absence of chemical substance (yeast gene YKL161C): 1.4
The level of expressed mRNA in the presence of chemical substance/The level of expressed mRNA in the absence of chemical substance (yeast gene YKL163W): 0.6
The level of expressed mRNA in the presence of chemical substance/The level of expressed mRNA in the absence of chemical substance (yeast gene YKL164C): 1.1
The level of expressed mRNA in the presence of chemical substance/The level of expressed mRNA in the absence of chemical substance (yeast gene YKL210W): 0.8
The level of expressed mRNA in the presence of chemical substance/The level of expressed mRNA in the absence of chemical substance (yeast gene YKR053C): 1.0
The level of expressed mRNA in the presence of chemical substance/The level of expressed mRNA in the absence of chemical substance (yeast gene YLL024C): 0.7
The level of expressed mRNA in the presence of chemical substance/The level of expressed mRNA in the absence of chemical substance (yeast gene YLL026W): 0.9
The level of expressed mRNA in the presence of chemical substance/The level of expressed mRNA in the absence of chemical substance (yeast gene YLL039C): 0.9
The level of expressed mRNA in the presence of chemical substance/The level of expressed mRNA in the absence of chemical substance (yeast gene YLL060C): 0.9
The level of expressed mRNA in the presence of chemical substance/The level of expressed mRNA in the absence of chemical substance (yeast gene YLR006C): 1.6
The level of expressed mRNA in the presence of chemical substance/The level of expressed mRNA in the absence of chemical substance (yeast gene YLR109W): 1.3
The level of expressed mRNA in the presence of chemical substance/The level of expressed mRNA in the absence of chemical substance (yeast gene YLR259C): 1.1
The level of expressed mRNA in the presence of chemical substance/The level of expressed mRNA in the absence of chemical substance (yeast gene YML007W): 1.0
The level of expressed mRNA in the presence of chemical substance/The level of expressed mRNA in the absence of chemical substance (yeast gene YML070W): 1.4
The level of expressed mRNA in the presence of chemical substance/The level of expressed mRNA in the absence of chemical substance (yeast gene YMR021C): 1.6
The level of expressed mRNA in the presence of chemical substance/The level of expressed mRNA in the absence of chemical substance (yeast gene YMR173W): 1.1
The level of expressed mRNA in the presence of chemical substance/The level of expressed mRNA in the absence of chemical substance (yeast gene YMR186W): 1.3
The level of expressed mRNA in the presence of chemical substance/The level of expressed mRNA in the absence of chemical substance (yeast gene YNL064C): 0.9
The level of expressed mRNA in the presence of chemical substance/The level of expressed mRNA in the absence of chemical substance (yeast gene YNL160W): 1.3
The level of expressed mRNA in the presence of chemical substance/The level of expressed mRNA in the absence of chemical substance (yeast gene YNL241C): 0.8
The level of expressed mRNA in the presence of chemical substance/The level of expressed mRNA in the absence of chemical substance (yeast gene YNR076W): 1.2
The level of expressed mRNA in the presence of chemical substance/The level of expressed mRNA in the absence of chemical substance (yeast gene YOL064C): 0.9
The level of expressed mRNA in the presence of chemical substance/The level of expressed mRNA in the absence of chemical substance (yeast gene YOL161C): 0.9
The level of expressed mRNA in the presence of chemical substance/The level of expressed mRNA in the absence of chemical substance (yeast gene YOR008C): 1.4
The level of expressed mRNA in the presence of chemical substance/The level of expressed mRNA in the absence of chemical substance (yeast gene YOR009W): 0.8
The level of expressed mRNA in the presence of chemical substance/The level of expressed mRNA in the absence of chemical substance (yeast gene YOR010C): 1.2
The level of expressed mRNA in the presence of chemical substance/The level of expressed mRNA in the absence of chemical substance (yeast gene YOR027W): 1.0
The level of expressed mRNA in the presence of chemical substance/The level of expressed mRNA in the absence of chemical substance (yeast gene YOR208W): 1.4
The level of expressed mRNA in the presence of chemical substance/The level of expressed mRNA in the absence of chemical substance (yeast gene YPL059W): 1.2
The level of expressed mRNA in the presence of chemical substance/The level of expressed mRNA in the absence of chemical substance (yeast gene YPL106C): 1.2
The level of expressed mRNA in the presence of chemical substance/The level of expressed mRNA in the absence of chemical substance (yeast gene YPL140C): 0.8
The level of expressed mRNA in the presence of chemical substance/The level of expressed mRNA in the absence of chemical substance (yeast gene YPL194W): 1.3
The level of expressed mRNA in the presence of chemical substance/The level of expressed mRNA in the absence of chemical substance (yeast gene YPL223C): 0.9
The level of expressed mRNA in the presence of chemical substance/The level of expressed mRNA in the absence of chemical substance (yeast gene YPL240C): 1.3
The level of expressed mRNA in the presence of chemical substance/The level of expressed mRNA in the absence of chemical substance (yeast gene YPR005C): 1.0
The level of expressed mRNA in the presence of chemical substance/The level of expressed mRNA in the absence of chemical substance (yeast gene YPR026W): 0.8
